This note sets out measurements from patent US20240293391A1, “ISOQUINOLINE AND PYRIDINE BASED CXCR4 ANTAGONISTS” (Katholieke Universiteit Leuven, priority 2021, published 2024).

As usually defined, the EC50 is the midpoint of the concentration-response curve. Lower therefore signals an effect from little substance. The term CC50 denotes the concentration at which the toxic effect on the cells reaches its halfway point. By IC50 is commonly meant the concentration that inhibits the measured activity by half.

Each structure is given as a SMILES string.

The test system of one series is HIV-2 ROD. Kind of series: Anti-HIV assay in MT-4 cells, HIV-2 ROD. To be noted: Human immunodeficiency virus 2, MT4; Concentration required to achieve 50% protection of MT-4 cells against HIV-induced cytopathicity. Format: cell-based. The procedure:
(§1) First, the ability of the compounds to compete with fluorescently labeled CXCL12 (CXCL12^AF647) for binding at CXCR4 was determined. Secondly, since binding of CXCL12 to CXCR4 results into a transient increase of cytosolic calcium levels, the inhibition of this CXCL12-induced calcium mobilization by the various compounds was also investigated. […] In parallel, the cytotoxicity of the compounds for uninfected MT-4 cells was assessed. […] The anti-HIV assays in MT-4 cells been described in detail before [Hout et al. cited above; […] et al. AIDS 2004, 18, 2115-2125]. […] After five days, the cytopathic effect was checked microscopically and cell viability (i.e. viral replication) was evaluated using the MTS/PES-based CellTiter 96 Aqueous One Solution Cell Proliferation assay (Promega, Fitchburg, WI, USA). Absorbance was recorded using the VersaMax ELISATM microplate reader (Molecular Devices) and analyzed with the Softmax Pro® software (Molecular Devices).
Background: Damage to the host cells serves as the signal in cytopathic effect assays.

Series [1] is described as follows: Cytotoxicity for mock-infected (uninfected) MT-4 cells. Format: cell-based. Conditions: human, mock-infected (uninfected) MT-4 cells, Concentration required to reduce the viability of mock-infected MT4 cells by 50%. The procedure:
as §1

The target of series [2] is T1, CXCR4 (Homo sapiens, UniProt P61073). Kind of series: CXCR4 calcium mobilization assay (CXCL12-induced, U87.CD4.CXCR4 cells, FLIPR). Conditions: Concentration needed to inhibit CXCL12-induced calcium signaling by 50%. Format: cell-based. The procedure: (§2) First, the ability of the compounds to compete with fluorescently labeled CXCL12 (CXCL12^AF647) for binding at CXCR4 was determined. […] Finally, given the role of CXCR4 as a major coreceptor for HIV entry, the antiviral activity of the compounds against the X4-tropic wild type HIV-1 NL4-3 strain and the HIV-2 ROD strain was determined in MT-4 cells. In parallel, the cytotoxicity of the compounds for uninfected MT-4 cells was assessed.
The calcium mobilization assay has been described in detail previously [Claes et al. JoVE 2018, 132, 1-9]. U87.CD4.CXCR4 cells (2×10^4 cells per well in DMEM/10% FBS/0.01M HEPES) were seeded in gelatin-coated (Sigma-Aldrich; 0.1% gelatin in DPBS) black-walled 96-well plates and incubated overnight at 37° ° C. and 5% CO2. The next day, cells were loaded with the fluorescent calcium indicator Fluo-2 acetoxymethyl (AM) ester (4 μM; Abcam) and incubated at room temperature in the dark for 45 minutes. Then, cells were incubated with various concentrations of the compounds for 10 minutes prior to addition of 6.25 nM CXCL12 (in assay buffer). Fluctuations in intracellular calcium levels were measured in real time by the FLIPR Tetra® (Molecular Devices, Sunnyvale, CA, USA) in all 96 wells simultaneously. The response over baseline (after CXCL12 addition) was calculated with the ScreenWorks 4.0® software (Molecular Devices) by dividing the obtained relative light units (RLUs) through the base line measured just before CXCL12 addition. From this the IC50 value for each compound was determined taking into account the negative (i.e. untreated cells without CXCL12 stimulation) and positive (i.e. untreated cells with CXCL12 addition) control samples.
On the technique in general: A change in cytosolic calcium serves as a functional read-out for many receptors and channels.

The target in series [3] is T1, CXCR4. Kind of series: CXCR4 binding assay (competition with CXCL12^AF647 on Jurkat cells, flow cytometry). Also on record: endogenous in cells; host or cells: Jurkat cells. The procedure: as §2
The CXCL12^AF647 binding assay with Jurkat cells has been described previously [Schoofs et al. JoVE 2018, 133, 1-8]. Briefly, Jurkat cells were resuspended in assay buffer [Hank's Balanced Salt Solution (HBSS, Thermo Fisher Scientific), 20 mM HEPES buffer, 0.2% bovine serum albumin (Sigma-Aldrich), pH 7.4] at 3×10^5 cells per sample and then treated with various concentrations of the compound at room temperature for 15 minutes. Afterwards, the cells were incubated with 2.9 nM CXCL12^AF647 (in assay buffer) at room temperature for 30 minutes in the dark. Cells were fixed in 1% paraformaldehyde in DPBS and specific CXCL12^AF647 binding [i.e. mean fluorescence intensity (MFI)] was quantified by flow cytometry (FACSArray™; Becton Dickinson). Data were analyzed with FlowJo® Software. The 50% inhibitory concentration (IC50) was calculated for each compound relative to the negative (i.e. autofluorescence of untreated and unlabeled cells) and positive (i.e. untreated cells exposed to CXCL12^AF647 only) control.
(A flow cytometer gives signals particle by particle.)

The next series has as its system HIV-1 NL4-3. The series is described as follows: Anti-HIV assay in MT-4 cells, HIV-1 NL4-3. Format: cell-based. Conditions: Human immunodeficiency virus 1, NL43, MT4; Concentration required to achieve 50% protection of MT-4 cells against HIV-induced cytopathicity. The procedure:
as §1

The test system of another series is MT-4 cells. The series is described as follows: Cytotoxicity for mock-infected (uninfected) MT-4 cells. Format: cell-based. The procedure: as §1
Where [4] appears, read: Concentration needed to inhibit CXCL12 receptor binding by 50%, Jurkat cells, mean of at least two independent experiments, read-out: CXCR4 Binding IC50.

T1 sequence (P61073 whole entry): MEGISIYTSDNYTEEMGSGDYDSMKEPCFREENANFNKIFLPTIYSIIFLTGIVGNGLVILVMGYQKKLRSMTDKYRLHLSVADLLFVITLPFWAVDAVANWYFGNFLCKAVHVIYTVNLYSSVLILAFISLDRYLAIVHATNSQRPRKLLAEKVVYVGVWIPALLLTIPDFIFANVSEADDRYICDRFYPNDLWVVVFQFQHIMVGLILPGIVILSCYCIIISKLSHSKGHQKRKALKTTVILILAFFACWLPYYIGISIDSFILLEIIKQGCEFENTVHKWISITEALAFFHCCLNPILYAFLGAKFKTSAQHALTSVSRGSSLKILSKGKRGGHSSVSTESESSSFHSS

`NCCCCN(Cc1ccccc1)c1cccc2cccnc12` [Compound 31a, N^1-benzyl-N^1-(quinolin-8-yl)butane-1,4-diamine]: the 50% effective concentration (EC50) in the series with HIV-2 ROD and with HIV-1 NL4-3 was greater than 41600 nM in each case. Besides, in series [1], half-maximal cytotoxicity (CC50 at 5 days) was put at 41600 nM. The IC50 is greater than 50000 nM on CXCR4 [2] and greater than 100000 nM at CXCR4 [3] (setting [4]).
As to `Cc1cccnc1CN(CCCCN)Cc1nccc2cc(Br)ccc12` [Compound 24d, N1-((6-Bromoisoquinolin-1-yl)methyl)-N1-((3-methylpyridin-2-yl)methyl) butane-1,4-diamine], half-maximal cytotoxicity in series [1] (CC50 at 5 days) was put at 29500 nM. Besides, the IC50 stood at 690 nM at CXCR4 [2] and 39 nM at CXCR4 [3] (setting [4]).
In turn, `Cc1cccnc1CN(CCCCN)Cc1ccccn1` [Compound 25, N1-((3-Methylpyridin-2-yl)methyl)-N1-(pyridin-2-ylmethyl)butane-1,4-diamine] returned a cytotoxic concentration (CC50) at 5 days in series [1] of 79800 nM. In addition, on CXCR4 [2], the IC50 was found to be 180 nM.
In the case of `COc1cc2ccnc(CN(CCCCN)Cc3ncccc3C)c2cc1OC` [Compound 24a, N1-((6,7-dimethoxyisoquinolin-1-yl)methyl)-N1-((3-methylpyridin-2-yl)methyl) butane-1,4-diamine], the “cytotoxicity for the MT4 cell line” value with MT-4 cells is recorded as “lack cytotoxicity”. Moreover, the half-maximal cytotoxic concentration (CC50) at 5 days in series [1] is greater than 100000 nM. Besides, the figures for the half-inhibitory concentration (IC50) on CXCR4 [2] and at CXCR4 [3] (setting [4]) were 13 nM and 3.2 nM, respectively.
Regarding `NCCCCN(Cc1nccc2ccccc12)c1cccc2cccnc12` [Compound 31c, N^1-(isoquinolin-1-ylmethyl)-N^1-(quinolin-8-yl)butane-1,4-diamine], the values for the EC50 with HIV-2 ROD and in the series on HIV-1 NL4-3 were 1.3 nM and 18 nM, respectively. This compound registered a 50% cytotoxic concentration (CC50) at 5 days in series [1] of 2980 nM. Further, the 50% inhibitory concentration (IC50) on CXCR4 [2] was 5 nM; on CXCR4 [3] (setting [4]) it was 2.3 nM.
Regarding `COc1cc2ccnc(CN(CCCCN)C3CCCc4cccnc43)c2cc1OC` (stereo not shown) [Compound 19a, N1-((6,7-Dimethoxyisoquinolin-1-yl)methyl)-N1-(5,6,7,8-tetrahydroquinolin-8-yl) butane-1,4-diamine], in series [1], the CC50 at 5 days is greater than 100000 nM. Moreover, the IC50 on CXCR4 [2] came out at 25 nM; on CXCR4 [3] (setting [4]), 7.2 nM.
As for `NCCCCN(Cc1nccc2ccccc12)C1CCCc2cccnc21` (stereo not shown) [Compound 19e, N1-(Isoquinolin-1-ylmethyl)-N1-(5,6,7,8-tetrahydroquinolin-8-yl)butane-1,4-diamine], in the series on MT-4 cells, the “cytotoxicity for the MT4 cell line” value is “lack cytotoxicity”. In series [1], this compound showed a CC50 at 5 days of 26700 nM. Moreover, the half-maximal inhibitory concentration (IC50) on CXCR4 [2] stood at 130 nM; on CXCR4 [3] (setting [4]), 9.2 nM.
In turn, `COc1ccc2c(CN(CCCCN)C3CCCc4cccnc43)nccc2c1` (stereo not shown) [Compound 19b, N1-((6-Methoxyisoquinolin-1-yl)methyl)-N1-(5,6,7,8-tetrahydroquinolin-8-yl)butane-1,4-diamine] registered a 50% cytotoxic concentration (CC50) at 5 days in series [1] of 11100 nM. Further, the IC50 at CXCR4 [2] came to 28 nM; at CXCR4 [3] (setting [4]) it was 0.25 nM.
`COc1ccc2c(CN(CCCCN)Cc3ncccc3C)nccc2c1` [Compound 24b, N1-((6-Methoxyisoquinolin-1-yl)methyl)-N1-((3-methylpyridin-2-yl)methyl) butane-1,4-diamine]: it took 9270 nM to reach half-maximal cytotoxicity in series [1] (CC50 at 5 days). In addition, the figures for the IC50 on CXCR4 [2] and at CXCR4 [3] (setting [4]) were 3850 nM and 890 nM, respectively.
Regarding `NCCCCN(Cc1nccc2cc(F)ccc12)C1CCCc2cccnc21` (stereo not shown) [Compound 19c, N1-((6-Fluoroisoquinolin-1-yl)methyl)-N1-(5,6,7,8-tetrahydroquinolin-8-yl)butane-1,4-diamine], in series [1], it took 18100 nM to reach half-maximal cytotoxicity (CC50 at 5 days). Besides, the IC50 at CXCR4 [2] amounted to 33 nM; at CXCR4 [3] (setting [4]), 8.9 nM.
For `Cc1cccnc1CN(CCCCN)Cc1nccc2cc(F)ccc12` [Compound 24c, N1-((6-Fluoroisoquinolin-1-yl)methyl)-N1-((3-methylpyridin-2-yl)methyl) butane-1,4-diamine], the “cytotoxicity for the MT4 cell line” value in the series on MT-4 cells was “lack cytotoxicity”. The same compound returned a CC50 with MT-4 cells (Concentration required to reduce the viability of mock-infected MT4 cells by 50%) of 30800 nM. This compound registered a CC50 at 5 days in series [1] of 31000 nM. The 50% inhibitory concentration (IC50) is 6.1 nM on CXCR4 [2]; 0.64 nM at CXCR4 [3] (setting [4]); 0.6 to 6 nM at CXCR4 [3] (span over all assays (binding, calcium, HIV-1, HIV-2), read-out: IC50 values in all assays).
Take `NCCCCN(Cc1nccc2cc(Br)ccc12)C1CCCc2cccnc21` (stereo not shown) [Compound 19d, N1-((6-Bromoisoquinolin-1-yl)methyl)-N1-(5,6,7,8-tetrahydroquinolin-8-yl)butane-1,4-diamine]: the cytotoxic concentration (CC50) at 5 days in series [1] worked out at 43600 nM. Besides, the IC50 on CXCR4 [2] was 440 nM; on CXCR4 [3] (setting [4]), 26 nM.
On to `NCCCCN(Cc1ccccn1)c1cccc2cccnc12` [Compound 31b, N^1-(pyridin-2-ylmethyl)-N^1-(quinolin-8-yl)butane-1,4-diamine], for which the EC50 was greater than 9460 nM in the series with HIV-2 ROD and 380 nM in the series with HIV-1 NL4-3. In addition, the CC50 at 5 days in series [1] amounted to 9460 nM. In addition, the IC50 on CXCR4 [2] came out at 5500 nM; at CXCR4 [3] (setting [4]), 36 nM.
`c1cc(CN2CCCNCCNCCCNCC2)ccc1CN1CCCNCCNCCCNCC1` [Plerixafor, reference compound] came in with a 50% cytotoxic concentration (CC50) at 5 days in series [1] of 6290 nM.
Take `NCCCCN(Cc1ccccn1)C1CCCc2cccnc21` (stereo not shown) [Compound 20, N1-(Pyridin-2-ylmethyl)-N1-(5,6,7,8-tetrahydroquinolin-8-yl)butane-1,4-diamine]: the “cytotoxicity for the MT4 cell line” value in the series with MT-4 cells is “lack cytotoxicity”. The midpoint of cytotoxicity in series [1], the CC50 at 5 days, lay at 55400 nM.
